# From patent US9593108B2, “Compounds and methods for antiviral treatment” (PTC Therapeutics, Inc., priority 2009, dated 2017)
# System: HCV replicon RNA (GenBank Accession No. AJ242654)
# Assay: HCV Replicon Assay (replicon RNA reduction and/or Fluc reporter signal)
# Format: cell-based, Hepatitis C virus
# Settings: Hepatitis C virus, 72 h, replicon-containing cells cultured with test compound for up to 3 days
# Source text: The lack of reliable and readily accessible cell-culture and small animal models permissive for HCV replication has limited the development of new anti-HCV agents. Self-replicating subgenomic HCV systems, termed HCV replicons, have been described and have been widely used to assess the efficacy of anti-HCV inhibitors (see Blight K J, et al., 2000, Efficient initiation of HCV RNA replication in cell culture. Science 290:1972-1974; Blight K J, et al., 2002, Highly permissive cell lines for subgenomic and genomic hepatitis C virus RNA replication. J Virol 76:13001-13014; Ikeda M, et al., 2002. Selectable subgenomic and genome-length dicistronic RNAs derived from an infectious molecular clone of the HCV-N strain of hepatitis C virus replicate efficiently in cultured Huh7 cells. J Virol 76:2997-3006; Lohmann V, et al., 1999, Replication of subgenomic hepatitis C virus RNAs in a hepatoma cell line. Science 285:110-113; Pietschmann T, et al., 2002, Persistent and transient replication of full-length hepatitis C virus genomes in cell culture. J Virol 76:4008-4021; and, Pietschmann T, et al., 2001, Characterization of cell lines carrying self-replicating hepatitis C virus RNAs. J Virol 75:1252-1264).
# As described in U.S. Pat. No. 6,630,343, HCV inhibitors are analyzed in the bicistronic replicon by quantitating replicon RNA (GenBank Accession No. AJ242654) reduction and/or the Fluc reporter signal. Replicon-containing cells may be cultured with a test compound of the present invention for up to 3 days. Interferon (IFN) is used as a positive control. In general, the replicon IC50 values shown in Table 1 represent IC50 values determined by replicon RNA reduction.
row,SMILES,IC50
1,"C[C@H](NS(=O)(=O)c1ccc(-c2c(C#N)c3cc(OC(F)F)cnc3n2C2CCC2)nc1)C1CC1 [Cpd 200, 6-[3-cyano-1-cyclobutyl-5-(difluoromethoxy)-1H-pyrrolo[2,3-b]pyridin-2-yl]-N-[(1S)-1-cyclopropylethyl]pyridine-3-sulfonamide]",500 to 2000 nM
2,"Cc1ccc2c(n1)c(C#N)c(-c1ccc(S(=O)(=O)N[C@@H](C)C(F)(F)F)cn1)n2C1CCCC1 [Cpd 222, 6-(3-cyano-1-cyclopentyl-5-methyl-1H-pyrrolo[3,2-b]pyridin-2-yl)-N-[(2S)-1,1,1-trifluoropropan-2-yl]pyridine-3-sulfonamide]",< 500 nM
3,"N#Cc1c(-c2ccc(S(=O)(=O)NC3CC3)cn2)n(C2CCC2)c2ncc(C(F)(F)F)cc12 [Cpd 245, 6-[3-cyano-1-cyclobutyl-5-(trifluoromethyl)-1H-pyrrolo[2,3-b]pyridin-2-yl]-N-cyclopropylpyridine-3-sulfonamide]",< 500 nM
4,"N#Cc1c(-c2ccc(NS(=O)(=O)C3CC3)cc2)n(C2CCC2)c2ncc(C(F)(F)F)cc12 [Cpd 246, N-{4-[3-cyano-1-cyclobutyl-5-(trifluoromethyl)-1H-pyrrolo[2,3-b]pyridin-2-yl]phenyl}cyclopropanesulfonamide]",500 to 2000 nM
5,"CCc1cnc2c(c1)c(C#N)c(-c1ccc(S(=O)(=O)N[C@H](C)C(F)(F)F)cn1)n2C1CCCC1 [Cpd 251, 6-(3-cyano-1-cyclopentyl-5-ethyl-1H-pyrrolo[2,3-b]pyridin-2-yl)-N-[(2R)-1,1,1-trifluoropropan-2-yl]pyridine-3-sulfonamide]",< 500 nM
6,"CCc1cnc2c(c1)c(C#N)c(-c1ccc(S(=O)(=O)N[C@@H](C)C(F)(F)F)cn1)n2C1CCCC1 [Cpd 252, 6-(3-cyano-1-cyclopentyl-5-ethyl-1H-pyrrolo[2,3-b]pyridin-2-yl)-N-[(2S)-1,1,1-trifluoropropan-2-yl]pyridine-3-sulfonamide]",< 500 nM
7,"CC1(NS(=O)(=O)c2ccc(-c3c(C#N)c4cc(C5CC5)cnc4n3C3CCCC3)nc2)CC1 [Cpd 253, 6-(3-cyano-1-cyclopentyl-5-cyclopropyl-1H-pyrrolo[2,3-b]pyridin-2-yl)-N-(1-methylcyclopropyl)pyridine-3-sulfonamide]",500 to 2000 nM
8,"Cc1cnc2c(c1)c(C#N)c(-c1ccc(S(=O)(=O)N[C@@H](C)C(F)(F)F)cn1)n2C1CCCC1 [Cpd 255, 6-(3-cyano-1-cyclopentyl-5-methyl-1H-pyrrolo[2,3-b]pyridin-2-yl)-N-[(2S)-1,1,1-trifluoropropan-2-yl]pyridine-3-sulfonamide]",< 500 nM
9,"COc1cnc2c(c1)c(C#N)c(-c1ccc(S(=O)(=O)NC3(C)CC3)cn1)n2C1CCCC1 [Cpd 269, 6-(3-cyano-1-cyclopentyl-5-methoxy-1H-pyrrolo[2,3-b]pyridin-2-yl)-N-(1-methylcyclopropyl)pyridine-3-sulfonamide]",< 500 nM
10,"CC1(NS(=O)(=O)c2ccc(-c3c(C#N)c4cc(Cl)cnc4n3C3CCC3)nc2)CC1 [Cpd 280, 6-(5-chloro-3-cyano-1-cyclobutyl-1H-pyrrolo[2,3-b]pyridin-2-yl)-N-(1-methylcyclopropyl)pyridine-3-sulfonamide]",< 500 nM
11,"N#Cc1c(-c2ccc(S(=O)(=O)NC3(C(F)(F)F)CC3)cc2)n(C2CCC2)c2ncc(Cl)cc12 [Cpd 281, 4-(5-chloro-3-cyano-1-cyclobutyl-1H-pyrrolo[2,3-b]pyridin-2-yl)-N-[1-(trifluoromethyl)cyclopropyl]benzenesulfonamide]",< 500 nM
12,"CC(C)(NS(=O)(=O)c1ccc(-c2c(C#N)c3cc(Cl)cnc3n2C2CCC2)cc1)C(F)(F)F [Cpd 282, 4-(5-chloro-3-cyano-1-cyclobutyl-1H-pyrrolo[2,3-b]pyridin-2-yl)-N-(1,1,1-trifluoro-2-methylpropan-2-yl)benzenesulfonamide]",< 500 nM
13,"CC1(NS(=O)(=O)c2ccc(-c3c(C#N)c4cc(Cl)cnc4n3C3CCC3)cc2)CC1 [Cpd 284, 4-(5-chloro-3-cyano-1-cyclobutyl-1H-pyrrolo[2,3-b]pyridin-2-yl)-N-(1-methylcyclopropyl)benzenesulfonamide]",< 500 nM
14,"COc1cnc2c(c1)c(C#N)c(-c1ccc(S(=O)(=O)NC3(C(F)(F)F)CC3)cn1)n2C1CCC1 [Cpd 312, 6-(3-cyano-1-cyclobutyl-5-methoxy-1H-pyrrolo[2,3-b]pyridin-2-yl)-N-[1-(trifluoromethyl)cyclopropyl]pyridine-3-sulfonamide]",< 500 nM
15,"C[C@H](NS(=O)(=O)c1ccc(-c2cc3cc(C(F)(F)F)cnc3n2-c2ccccc2)nc1)C(F)(F)F [Cpd 314, 6-[1-phenyl-5-(trifluoromethyl)-1H-pyrrolo[2,3-b]pyridin-2-yl]-N-[(2S)-1,1,1-trifluoropropan-2-yl]pyridine-3-sulfonamide]",500 to 2000 nM
16,"C[C@H](NS(=O)(=O)c1ccc(-c2cc3cc(C(F)(F)F)cnc3n2-c2cnccn2)nc1)C(F)(F)F [Cpd 315, 6-[1-(pyrazin-2-yl)-5-(trifluoromethyl)-1H-pyrrolo[2,3-b]pyridin-2-yl]-N-[(2S)-1,1,1-trifluoropropan-2-yl]pyridine-3-sulfonamide]",< 500 nM
17,"C[C@H](NS(=O)(=O)c1ccc(-c2c(C#N)c3cc(F)cnc3n2-c2ccccc2)nc1)C(F)(F)F [Cpd 319, 6-(3-cyano-5-fluoro-1-phenyl-1H-pyrrolo[2,3-b]pyridin-2-yl)-N-[(2S)-1,1,1-trifluoropropan-2-yl]pyridine-3-sulfonamide]",< 500 nM
18,"CSc1cnc2c(c1)c(C(=O)O)c(-c1ccc(S(=O)(=O)NC3(C(F)(F)F)CC3)cn1)n2C1CCCC1 [Cpd 330, 1-cyclopentyl-5-(methylsulfanyl)-2-(5-{[1-(trifluoromethyl)cyclopropyl]sulfamoyl}pyridin-2-yl)-1H-pyrrolo[2,3-b]pyridine-3-carboxylic acid]",2000 to 5000 nM
19,"CC(C)(NS(=O)(=O)c1ccc(-c2c(C(=O)O)c3cc(Cl)cnc3n2C2CCC2)nc1)C(F)(F)F [Cpd 331, 5-chloro-1-cyclobutyl-2-{5-[(1,1,1-trifluoro-2-methylpropan-2-yl)sulfamoyl]pyridin-2-yl}-1H-pyrrolo[2,3-b]pyridine-3-carboxylic acid]",500 to 2000 nM
20,"Cc1cnc2c(c1)c(C(N)=O)c(-c1ccc(S(=O)(=O)NC3(C(F)(F)F)CC3)cc1)n2C1CCC1 [Cpd 342, 1-cyclobutyl-5-methyl-2-(4-{[1-(trifluoromethyl)cyclopropyl]sulfamoyl}phenyl)-1H-pyrrolo[2,3-b]pyridine-3-carboxamide]",< 500 nM
21,"Cc1cnc2c(c1)c(C(N)=O)c(-c1ccc(S(=O)(=O)N[C@@H](C)C(F)(F)F)cc1)n2C1CCC1 [Cpd 343, 1-cyclobutyl-5-methyl-2-(4-{[(2S)-1,1,1-trifluoropropan-2-yl]sulfamoyl}phenyl)-1H-pyrrolo[2,3-b]pyridine-3-carboxamide]",< 500 nM
22,"C[C@H](NS(=O)(=O)c1ccc(-c2c(C#N)c3cc(N(C)Cc4ccccc4)cnc3n2C2CCC2)nc1)C(F)(F)F [Cpd 350, 6-{5-[benzyl(methyl)amino]-3-cyano-1-cyclobutyl-1H-pyrrolo[2,3-b]pyridin-2-yl}-N-[(2S)-1,1,1-trifluoropropan-2-yl]pyridine-3-sulfonamide]",< 500 nM
23,"CN(Cc1ccccc1)c1cnc2c(c1)c(C#N)c(-c1ccc(NS(=O)(=O)C(C)(C)C)cc1)n2C1CCC1 [Cpd 352, N-(4-{5-[benzyl(methyl)amino]-3-cyano-1-cyclobutyl-1H-pyrrolo[2,3-b]pyridin-2-yl}phenyl)-2-methylpropane-2-sulfonamide]",500 to 2000 nM
24,"CN(Cc1ccccc1)c1cnc2c(c1)c(C#N)c(-c1ccc(S(=O)(=O)NC(C)(C)C(F)(F)F)cc1)n2C1CCC1 [Cpd 353, 4-{5-[benzyl(methyl)amino]-3-cyano-1-cyclobutyl-1H-pyrrolo[2,3-b]pyridin-2-yl}-N-(1,1,1-trifluoro-2-methylpropan-2-yl)benzenesulfonamide]",2000 to 5000 nM
25,"Cc1cnc(-n2c(-c3ccc(S(=O)(=O)N[C@@H](C)C(F)(F)F)cn3)c(C#N)c3cc(C(F)(F)F)cnc32)cn1 [Cpd 354, 6-[3-cyano-1-(5-methylpyrazin-2-yl)-5-(trifluoromethyl)-1H-pyrrolo[2,3-b]pyridin-2-yl]-N-[(2S)-1,1,1-trifluoropropan-2-yl]pyridine-3-sulfonamide]",< 500 nM
26,"CC(C)(NS(=O)(=O)c1ccc(-c2c(C#N)c3cc(C(F)(F)F)cnc3n2C2CC2)cc1)C(F)(F)F [Cpd 361, 4-[3-cyano-1-cyclopropyl-5-(trifluoromethyl)-1H-pyrrolo[2,3-b]pyridin-2-yl]-N-(1,1,1-trifluoro-2-methylpropan-2-yl)benzenesulfonamide]",2000 to 5000 nM
27,"CC(C)(C)S(=O)(=O)Nc1ccc(-c2c(C#N)c3cc(C(F)(F)F)cnc3n2C2CC2)cc1 [Cpd 362, N-{4-[3-cyano-1-cyclopropyl-5-(trifluoromethyl)-1H-pyrrolo[2,3-b]pyridin-2-yl]phenyl}-2-methylpropane-2-sulfonamide]",500 to 2000 nM
